{"source": "patent US9579330B2", "about": "“Use and application regimen of a pharmaceutical composition containing levonorgestrel and a COX inhibitor for on-demand contraception” (priority 2012, dated 2017)", "key": {"fertility of female rats": {"system": "fertility of female rats", "assay": "Rat fertility test: single application in pro oestrus, pairing, number of implantation sites", "assay_type": "in vivo, Han Wistar rats", "method": "In the experiments below, female Han Wistar rats with a weight of 200-270 g were used. The animals were kept in Macrolon cages in rooms with controlled lighting (12 hours darkness: 12 hours lightness), fed with a standard diet and watered with water ad libitum. Levonorgestrel was dissolved in benzyl benzoate/castor oil (1+4 v/v) and the daily dose was applied in a volume of 1 ml/kg of body weight s.c. The COX inhibitors were suspended in a carrier liquid (85 mg Myrj®53 polyoxyl(50)stearate; CAS No. 9004-99-3) in 100 ml of 0.9% w/v NaCl solution) and the dose corresponding to the treatment group was administered orally in a volume of 2 ml/kg of body weight. Two cycles were observed using vaginal smears prior to the start of the experiment. […] Assignment to the treatment groups was random. The animals were treated once with the test substances either on their own or in combination in pro oestrus, the day in the cycle on which in the evening the LH peaked. On the evening of […] the female animals were paired with male rats. Successful pairing was tested the next morning by means of a vaginal sperm detection in the vaginal smear. The influence on the fertility was ascertained 9-15 days after the pairing via the number of implantation sites of the animals. The group size was n=6 animals per group."}, "cervical secretion": {"system": "cervical secretion", "details": "clinical study; cited from earlier work"}, "[1]": {"system": "prostaglandin E2 (PEG2) synthesis in the ovaries"}, "fertility in humans": {"system": "fertility in humans", "details": "taken over a prolonged period for treating Bechterew's disease; cited from earlier work"}, "ovulation of women": {"system": "ovulation of women", "assay": "Clinical phase IIa study: oral single dose of piroxicam after start of the LH increase, ovulation inhibition or delay", "assay_type": "in vivo", "details": "for Time from LH increase to ovulation in the treatment cycle, average value / Time from LH increase to ovulation in the treatment cycle, median / Time from LH increase to ovulation in the treatment cycle, range: N = 16; for % of women who exhibited an at least plus 24 hour delay in ovulation / Number of women who exhibited an at least plus 24 hour delay in ovulation compared to the median time between LH increase and ovulation in the untreated previous cycle: N = 16, final evaluation set", "method": "In a clinical phase IIa study (monocentric, double blind, placebo controlled, randomized, parallel groups), piroxicam was administered to women of a fertile age in the dosages 20, 40 and 80 mg as an oral single dose. Overall, 72 women were treated, of which 18 women were given 20 mg, 17 women were given 40 mg, 20 women were given 80 mg of piroxicam and 17 women were given a placebo preparation. It was the aim of the study to investigate whether the oral single administration of piroxicam after the start of the LH increase has an effect on ovulation compared to the placebo in healthy young women. An ovulation inhibition or delay by at least plus 24 hours longer than the median duration between LH increase and ovulation in the untreated previous cycle of the study population was evaluated as the effect. For this purpose, transvaginal ultrasound investigations and hormone level measurements were carried out. Only women (n=64) without serious protocol deviations which could have influenced the study aim were included in the final study evaluation.\nAdapted Kaplan-Meier curve for depicting the ovulation delay following administration of piroxicam compared to the administration of a placebo preparation. The time after the LH increase is plotted on the X axis in days. […] The individual curves represent the individual treatment groups: placebo group (solid line); 20 mg of piroxicam (dotted line consisting of short strokes), 40 mg of piroxicam (dotted line consisting of long strokes) and 80 mg of piroxicam (dotted line consisting of alternating long and short strokes)."}, "[2]": {"details": "Table 2.2, treatment at 17:00, LNG 0.5 mg/animal, indomethacin 1 mg/animal, combination n = 5"}, "[3]": {"details": "Table 2.1, treatment at 7:00, LNG 0.5 mg/animal s.c., piroxicam 2 mg/animal oral, single application"}, "[4]": {"details": "Table 2.1, treatment at 13:00, LNG 0.5 mg/animal s.c., piroxicam 2 mg/animal oral, single application"}, "[5]": {"details": "Table 2.3, treatment at 17:00, LNG 0.5 mg/animal (n = 5), diclofenac 4 mg/animal"}, "[6]": {"details": "Table 2.4, treatment at 17:00, LNG 0.5 mg/animal, ibuprofen 12.5 mg/animal"}, "[7]": {"details": "Table 2.5, LNG 0.5 mg/animal at 17:00 (n = 5), naproxen 10 mg/animal at 20:00 (n = 4), combination 17:00"}, "[8]": {"details": "Table 2.4, treatment at 17:00, ibuprofen 25 mg/animal alone or with LNG 0.5 mg/animal"}, "[9]": {"details": "Table 2.5, naproxen 2 × 5 mg/animal at 17:00 and 20:00, alone or with LNG 0.5 mg/animal"}}, "note": "Where two headings read alike, the source gives them in different places. Marks after values point to notes of the source that are not given here."}
{"smiles": "COc1ccc2c(c1)c(CC(=O)O)c(C)n2C(=O)c1ccc(Cl)cc1", "note": "[Indomethacin, indomethacin]", "values": [{"measurement": "Implantations per animal (average value ± SD)", "setting": "fertility of female rats; [2]", "value": "4.8 ± 4.1"}, {"measurement": "Sum of the implantation sites of 6 animals", "setting": "fertility of female rats; [2]", "value": 29}]}
{"smiles": "C#C[C@]1(O)CC[C@H]2[C@@H]3CCC4=CC(=O)CC[C@@H]4[C@H]3CC[C@@]21CC", "note": "[LNG, levonorgestrel]", "values": [{"measurement": "Implantations per animal (average value ± SD)", "setting": "fertility of female rats; [3]", "value": "8.3 ± 4.3"}, {"measurement": "Sum of the implantation site, of 6 animals", "setting": "fertility of female rats; [3]", "value": 50}, {"measurement": "Implantations per animal (average value ± SD)", "setting": "fertility of female rats; [4]", "value": "5.3 ± 3.1"}, {"measurement": "Sum of the implantation site, of 6 animals", "setting": "fertility of female rats; [4]", "value": 32}, {"measurement": "Implantations per animal (average value ± SD)", "setting": "fertility of female rats; [2]", "value": "7.5 ± 4.0"}, {"measurement": "Sum of the implantation sites of 6 animals", "setting": "fertility of female rats; [2]", "value": 45}, {"measurement": "Implantations per animal (average value ± SD)", "setting": "fertility of female rats; [5]", "value": "6.8 ± 5.9"}, {"measurement": "Sum of the implantation sites of 6 animals", "setting": "fertility of female rats; [5]", "value": "34*"}, {"measurement": "Implantations per animal (average value ± SD)", "setting": "fertility of female rats; [6]", "value": "10.5 ± 4.5"}, {"measurement": "Sum of the implantation sites of 6 animals", "setting": "fertility of female rats; [6]", "value": 63}, {"measurement": "Implantations per animal (average value ± SD)", "setting": "fertility of female rats; [7]", "value": "7.8 ± 5.9"}, {"measurement": "Sum of the implantation sites of 6 animals", "setting": "fertility of female rats; [7]", "value": "39*"}]}
{"smiles": "CC(C)Cc1ccc(C(C)C(=O)O)cc1", "note": "(stereo not drawn) [Ibuprofen, ibuprofen]", "values": [{"measurement": "Implantations per animal (average value ± SD)", "setting": "fertility of female rats; [6]", "value": "10.8 ± 3.2"}, {"measurement": "Sum of the implantation sites of 6 animals", "setting": "fertility of female rats; [6]", "value": 65}, {"measurement": "Implantations per animal (average value ± SD)", "setting": "fertility of female rats; [8]", "value": "11.3 ± 2.6"}, {"measurement": "Sum of the implantation sites of 6 animals", "setting": "fertility of female rats; [8]", "value": 68}]}
{"smiles": "O=C(O)Cc1ccccc1Nc1c(Cl)cccc1Cl", "note": "[Diclofenac, diclofenac]", "values": [{"measurement": "Implantations per animal (average value ± SD)", "setting": "fertility of female rats; [5]", "value": "3.7 ± 3.6"}, {"measurement": "Sum of the implantation sites of 6 animals", "setting": "fertility of female rats; [5]", "value": 22}, {"measurement": "Effect on cervical secretion (in words)", "setting": "cervical secretion", "value": "reduction in cervical secretion"}]}
{"smiles": "COc1ccc2cc([C@H](C)C(=O)O)ccc2c1", "note": "[Naproxen, naproxen]", "values": [{"measurement": "Implantations per animal (average value ± SD)", "setting": "fertility of female rats; [7]", "value": "5.8 ± 4.4"}, {"measurement": "Sum of the implantation sites of 6 animals", "setting": "fertility of female rats; [7]", "value": "23**"}, {"measurement": "Implantations per animal (average value ± SD)", "setting": "fertility of female rats; [9]", "value": "7.3 ± 3.6"}, {"measurement": "Sum of the implantation sites of 6 animals", "setting": "fertility of female rats; [9]", "value": 44}, {"measurement": "Antifertile effect in the rat fertility test (in words)", "setting": "fertility of female rats; single application, doses as in Tables 2.1-2.5", "value": "reduction in fertility"}, {"measurement": "Prostaglandin E2 in the ovaries, average value", "setting": "[1]; sample at 18:00, 2 hours after oral 20 mg/kg naproxen (around 16:00)", "value": 12.9, "unit": "pg/500 μg tissue"}, {"measurement": "Prostaglandin E2 in the ovaries, average value", "setting": "[1]; sample at 20:00, 4 hours after oral 20 mg/kg naproxen (around 16:00)", "value": 32.1, "unit": "pg/500 μg tissue"}, {"measurement": "Prostaglandin E2 in the ovaries, average value", "setting": "[1]; sample at 22:00, 6 hours after oral 20 mg/kg naproxen (around 16:00)", "value": 72.4, "unit": "pg/500 μg tissue"}, {"measurement": "Prostaglandin E2 (PEG2) synthesis in the ovaries (in words)", "setting": "[1]; under the action of naproxen", "value": "reduced"}, {"measurement": "Effect on fertility in humans (in words)", "setting": "fertility in humans", "value": "antifertile effect"}]}
{"smiles": "CN1C(C(=O)Nc2ccccn2)=C(O)c2ccccc2S1(=O)=O", "note": "[Piroxicam, piroxicam]", "values": [{"measurement": "Extension of the time (median) between LH increase and ovulation in the treatment cycle compared to the previous cycle", "setting": "ovulation of women; 20 mg oral single dose", "value": 17, "unit": "h"}, {"measurement": "Time from LH increase to ovulation in the treatment cycle, average value", "setting": "ovulation of women; 20 mg oral single dose", "value": 133, "unit": "h"}, {"measurement": "Time from LH increase to ovulation in the treatment cycle, median", "setting": "ovulation of women; 20 mg oral single dose", "value": 65, "unit": "h"}, {"measurement": "Time from LH increase to ovulation in the treatment cycle, range", "setting": "ovulation of women; 20 mg oral single dose", "value": "38 to 416", "unit": "h"}, {"measurement": "% of women who exhibited an at least plus 24 hour delay in ovulation", "setting": "ovulation of women; 20 mg oral single dose", "value": 50.0, "unit": "%"}, {"measurement": "Number of women who exhibited an at least plus 24 hour delay in ovulation compared to the median time between LH increase and ovulation in the untreated previous cycle", "setting": "ovulation of women; 20 mg oral single dose", "value": 8}, {"measurement": "Extension of the time (median) between LH increase and ovulation in the treatment cycle compared to the previous cycle", "setting": "ovulation of women; 40 mg oral single dose", "value": 15, "unit": "h"}, {"measurement": "Time from LH increase to ovulation in the treatment cycle, average value", "setting": "ovulation of women; 40 mg oral single dose", "value": 121, "unit": "h"}, {"measurement": "Time from LH increase to ovulation in the treatment cycle, median", "setting": "ovulation of women; 40 mg oral single dose", "value": 63, "unit": "h"}, {"measurement": "Time from LH increase to ovulation in the treatment cycle, range", "setting": "ovulation of women; 40 mg oral single dose", "value": "37 to 384", "unit": "h"}, {"measurement": "% of women who exhibited an at least plus 24 hour delay in ovulation", "setting": "ovulation of women; 40 mg oral single dose", "value": 43.8, "unit": "%"}, {"measurement": "Number of women who exhibited an at least plus 24 hour delay in ovulation compared to the median time between LH increase and ovulation in the untreated previous cycle", "setting": "ovulation of women; 40 mg oral single dose", "value": 7}, {"measurement": "Extension of the time (median) between LH increase and ovulation in the treatment cycle compared to the previous cycle", "setting": "ovulation of women; 80 mg oral single dose", "value": 228, "unit": "h"}, {"measurement": "Time from LH increase to ovulation in the treatment cycle, average value", "setting": "ovulation of women; 80 mg oral single dose", "value": 219, "unit": "h"}, {"measurement": "Time from LH increase to ovulation in the treatment cycle, median", "setting": "ovulation of women; 80 mg oral single dose", "value": 276, "unit": "h"}, {"measurement": "Time from LH increase to ovulation in the treatment cycle, range", "setting": "ovulation of women; 80 mg oral single dose", "value": "48 to 386", "unit": "h"}, {"measurement": "% of women who exhibited an at least plus 24 hour delay in ovulation", "setting": "ovulation of women; 80 mg oral single dose", "value": 68.8, "unit": "%"}, {"measurement": "Number of women who exhibited an at least plus 24 hour delay in ovulation compared to the median time between LH increase and ovulation in the untreated previous cycle", "setting": "ovulation of women; 80 mg oral single dose", "value": 11}, {"measurement": "Effect on ovulation compared to placebo (in words)", "setting": "ovulation of women; all three dose groups (20, 40, 80 mg)", "value": "more marked effect on ovulation than in the placebo group"}, {"measurement": "Implantations per animal (average value ± SD)", "setting": "fertility of female rats; [3]", "value": "9.5 ± 4.8"}, {"measurement": "Sum of the implantation site, of 6 animals", "setting": "fertility of female rats; [3]", "value": 57}, {"measurement": "Implantations per animal (average value ± SD)", "setting": "fertility of female rats; [4]", "value": "10.0 ± 5.3"}, {"measurement": "Sum of the implantation site, of 6 animals", "setting": "fertility of female rats; [4]", "value": 60}]}
